Measured values from publication PMC10693528, “A high-throughput metabolomics in vitro platform for the characterization of hepatotoxicity” (Cell Biology and Toxicology, 2023).
Several values for one entry are separate records, joined by “and”; a condition that tells them apart may be missing. Identical values can stand only once.

Columns and labels:
[1] = Cell viability (ATP, CellTiter-Glo) in parallel with metabolomics experiments; details: human, HepG2 cells, Percentage of viability (ATP) compared to the vehicle control, Bezafibrate positive control, Bezafibrate 1000 μM, 48 h, one value per experiment plate, n = 6
Method: (§1) HepG2 cells (ECACC, UK, maximum passage number 9) were maintained and grown on Dulbecco’s MEM media supplemented with 1% v/v of penicillin/streptomycin, L-glutamine (200 mM, 1% v/v), non-essential amino acids (100x, 1% v/v), and 10% FBS (PAN-Biotech, Aidenbach, Germany) in 75 cm^2 culture flasks (TPP, Switzerland). For cell passaging (~ 80% confluency) media was removed and cells were washed twice with pre-warmed calcium and magnesium free Dulbecco’s PBS (PAN-Biotech, Aidenbach, Germany). Trypsin was used for cell detachment. Then, 20 mL culture medium was added, and single-cell suspensions were obtained by passing the suspension through a Combitip (Eppendorf, Germany). A fraction of the cell suspension was then transferred to a new culture vessel. For experiments, 15,000 cells per well (passage 5-9) were seeded in 96-well flat-bottom plates (TPP, Switzerland) and incubated for 24 h for cell attachment (37 °C and 5% CO^2). Afterwards, culture media were exchanged, test substances applied, and plates incubated for 48 h (37 °C and 5% CO^2).
(§2) For each substance, one 96-well plate was set up with 6 replicates per concentration, 12 replicates for vehicle controls (yielding a final concentration of 0.5% DMSO in the well), 6 replicates for positive controls (Bezafibrate 1000 μM), and 6 replicates for blank controls (media without cells). To minimize potential evaporation, the outer rows and columns of the plate were omitted and filled with PBS instead. Reference samples prepared from lyophilized HepG2 cells were measured in parallel throughout the entire analytical process (technical replicates). […] Lyophilized HepG2 cells reference samples were used to account for variability between plates and in concentration series for linearity checks. After 48 h, the assays were stopped by washing the wells once with 100 μL 0.9% NaCl followed by snap freezing the plates on liquid nitrogen for 5 s. Plates were placed immediately on dry ice and 50 μL ice-cooled isopropanol 80% (v/v) were added to quench metabolism and precipitate proteins. Plates were stored at − 80 °C until LC/ MS analysis.

[2] = tested on: HepG2 cells; experiment: as above; details: Bezafibrate 1000 μM, 48 h, one value per experiment plate, n = 6
Method: as §1, §2

[3] = tested on: HepG2 cells; experiment: LC-MS/MS targeted intracellular metabolomics; assay type: cell-based, human; details: Suppl Fig 9; C3 (EC15 ATP), 48 h; Bezafibrate lines = Plates 1-6 in order
Method: Metabolite profiling of cells was performed directly in the same 96-well plate according to a standardized protocol described below. In order to prevent any interaction with the cell material, the automatic sampler was adjusted to pick up the sample from the supernatant at a specified depth avoiding the contact with the bottom of the plate.
After the initial quenching step (50 μL isopropanol 80%), additional 70 μL of isopropanol 80%, containing internal standards (methionine-D3, tryptophan-D5, arginine-13C6-15N4, Boc-Ala-Gly-Gly-Gly-OH, coenzyme Q1, coenzyme Q2, coenzyme Q4) were added to each well. The internal standards were used for quality control by visual inspection (signal intensity, peak shape, retention time); they were not used for normalization. Afterwards, plates were shaken for 5 min, 750 rpm at 20 °C, and placed for 30 s in the ultrasonic device. Then, the plates were centrifugated for 10 min, at 5485 g, 15 °C. Further, 2.5 μL of the extract were injected each for reversed-phase and hydrophilic interaction liquid chromatography followed by MS/MS detection (AB Sciex QTrap 6500+) using the positive and negative ionization mode. For reverse-phase high-performance liquid chromatography (RP-HPLC, Ascentis Express C18, 5 cm × 2.1 mm, 2.7 μm Supelco), gradient elution was performed with mobile phase A, water/methanol/0.1 M ammonium formate (1:1:0.02, w/w), and B, methyl-tert-butylether/2-propanol/methanol/0.1 M ammonium formate/formic acid (4:2:1:0.07:0.035, w/w) 5.9 min linear gradient: 0 min 100% A, 0.5 min 75% A, 5.9 min 10% A; followed by 0% A until 6.7 min; re-equilibration at 100% A until 7.7 min; flow rate 600 μL/min; column temperature 40 °C HILIC (ZIC-HILIC, 2.1 × 100 mm, 3.5 μm, Supelco) gradient elution was performed with mobile phase C, acetonitrile/water (99:1, v/v) with 0.2% (v) acetic acid, and D, 7 mM ammonium acetate with 0.2% (v) acetic acid (5.0 min linear gradient: 0 min 100% C, 5 min 10% C; followed by a linear gradient back to 100%C until 6.5 min; re-equilibration at 100% C until 7.5 min; flow rate 600 μL/min; column temperature 40 °C.). Two LC-MS systems with identical configuration were used for the analysis. Normalization to lyophilized reference samples (see below) was used to compensate for variation from between analytical batches. The efficiency of this normalization procedure was checked by principal component analysis (PCA), confirming that Pool samples from different analytical batches clustered together.
Reference samples derived from lyophilized untreated HepG2 cells (technical control samples) were measured in parallel throughout the entire analytical process. Data were normalized against the median of these lyophilized HepG2 cells reference samples, to give normalized ratios (performed for each sample per metabolite). This compensated for inter- and intra-instrumental variation. To correct for small differences in cell numbers within and between different treatment groups, data were also normalized to the within sample median, as described in detail by (Ramirez et al. [2018]). For intracellular metabolomic analysis, the median of each sample was calculated across all the 221 measured metabolites.
To generate metabolic profiles for the different treatments, heteroscedastic t test (Welch test) was applied to log-transformed normalized metabolite data to compare treated groups with their respective controls.
Principal component analysis (PCA) and hierarchical clustering (HCA) analyses were performed using R software environment (https://www.r-project.org/). PCA was conducted using the ropls package (Thévenot et al. [2015]) with log10-transformed input data and standard scaling. HCA was performed using the pvclust package (Suzuki et al. [2019]), (https://CRAN.R-project.org/package=pvclust). Input: log10(Ratio), clustering method: Ward D2, distance method: Manhattan, bootstrapping: 10000 times.

## CC(C)(Oc1ccc(CCNC(=O)c2ccc(Cl)cc2)cc1)C(=O)O [Bezafibrate]
[1]
  viability at 48 h, 1000 μM: 71 to 84%
[2]
  Percentage of viability (ATP) compared to the vehicle control, Bezafibrate positive control: 84.1 ± 2.3% and 76.3 ± 3.2% and 75.0 ± 1.5% and 71.8 ± 2.8% and 78.0 ± 0.7% and 79.3 ± 2.2%
[3]
  5-Hydroxytryptophan level vs controls: 0.84 and 0.77 and 0.76 and 0.85 and 0.74 and 0.65
  Carnitine level vs controls: 0.72 and 0.74 and 0.84 and 0.77 and 0.80
  Ceramide (d18:1.C20:0) level vs controls: 0.63 and 0.66 and 0.56 and 0.62 and 0.64 and 0.59
  Ceramide (d18:1.C24:1) level vs controls: 0.66 and 0.91 and 0.98 and 0.80 and 0.85 and 0.68
  Ceramide (d18:1.C24:2) level vs controls: 0.83 and 1.08 and 1.11 and 0.89 and 0.90 and 0.91
  Ceramide (d18:2.C24:1) level vs controls: 0.56 and 0.62 and 0.68 and 0.89 and 0.63
  Choline plasmalogen (C36:4) level vs controls: 0.65 and 0.80 and 0.68 and 0.69 and 0.73 and 0.72
  Choline plasmalogen (C36:5) level vs controls: 0.78 and 0.90 and 0.80 and 0.83 and 0.82 and 0.79
  Creatine level vs controls: 0.80 and 0.82 and 0.73 and 0.78 and 0.67 and 0.66
  Glycerol-3-phosphate level vs controls: 0.68 and 0.43 and 0.45 and 0.54 and 0.44 and 0.39
  Hexanoylcarnitine level vs controls: 0.65 and 0.54 and 0.50 and 0.59 and 0.62
  Ketoleucine level vs controls: 0.73 and 0.72 and 0.74 and 0.77 and 1.10
  Lysophosphatidylcholine (C14:0) level vs controls: 2.27 and 1.82 and 2.09 and 1.97 and 1.85 and 1.87
  Lysophosphatidylcholine (C16:0) level vs controls: 1.86 and 1.92 and 1.98 and 2.08 and 1.93 and 2.14
  Lysophosphatidylcholine (C16:1) level vs controls: 1.95 and 2.13 and 2.01 and 2.17 and 1.86 and 1.72
  Lysophosphatidylcholine (C20:4) level vs controls: 1.22 and 1.67 and 1.47 and 1.90 and 1.86 and 1.44
  Lysophosphatidylcholine (C24:0) level vs controls: 1.01 and 1.18 and 1.11 and 1.20 and 1.21 and 1.29
  Lysophosphatidylcholine (C24:1) level vs controls: 1.10 and 1.03 and 1.13 and 1.26 and 1.12
  Lysophosphatidylethanolamine (C16:0) level vs controls: 2.47 and 2.37 and 2.23 and 2.12 and 2.10 and 2.19
  Lysophosphatidylethanolamine (C18:0) level vs controls: 2.21 and 2.07 and 1.76 and 1.77 and 2.04
  Lysophosphatidylethanolamine (C18:1) level vs controls: 2.45 and 2.31 and 1.97 and 2.19 and 2.11 and 2.16
  N-Acetylaspartate level vs controls: 1.54 and 1.49 and 1.66 and 1.48 and 1.41 and 1.25
  Pantothenic acid level vs controls: 0.68 and 0.77 and 0.59 and 0.72 and 0.70 and 0.76
  Phosphatidylcholine (C32:0) level vs controls: 0.82 and 0.70 and 0.79 and 0.88 and 0.83 and 0.76
  Phosphatidylcholine (C34:1) level vs controls: 0.83 and 0.75 and 0.78 and 0.82 and 0.74
  Phosphatidylcholine (C34:3) level vs controls: 1.02 and 1.18 and 1.17 and 1.09 and 1.15 and 1.04
  Phosphatidylcholine (C36:1) level vs controls: 0.86 and 0.88 and 0.73 and 0.84 and 0.79 and 0.90
  Phosphatidylcholine (C36:2) level vs controls: 0.66 and 0.71 and 0.62 and 0.69 and 0.65
  Phosphatidylcholine (C36:3) level vs controls: 0.90 and 1.03 and 0.84 and 0.96 and 0.97 and 0.89
  Phosphatidylcholine (C36:4) level vs controls: 1.00 and 0.93 and 0.81 and 0.98 and 0.95 and 0.94
  Phosphatidylcholine (C36:5) level vs controls: 0.78 and 0.81 and 0.63 and 0.76 and 0.72 and 0.75
  Phosphatidylethanolamine (C36:3) level vs controls: 0.90 and 0.87 and 0.84
  Phosphatidylethanolamine (C38:3) level vs controls: 0.72 and 0.70 and 0.64 and 0.75 and 0.68 and 0.66
  Phosphatidylethanolamine (C38:5) level vs controls: 0.90 and 1.00 and 0.86 and 0.98 and 0.87
  Phosphatidylethanolamine (C38:6) level vs controls: 0.92 and 0.91 and 0.95 and 1.01 and 0.98
  Phosphatidylethanolamine (C40:7) level vs controls: 0.79 and 0.81 and 0.75 and 0.88 and 0.82
  Phosphocholine level vs controls: 0.78 and 0.69 and 0.56 and 0.63
  Propionylcarnitine level vs controls: 0.66 and 0.78 and 0.40 and 0.58 and 0.54 and 0.57
  S-Adenosylhomocysteine level vs controls: 0.92 and 0.98 and 0.70 and 0.93 and 0.78 and 0.79
  Sphingomyelin (d32:2) level vs controls: 0.49 and 0.71 and 0.69 and 0.75 and 0.59 and 0.78
  Sphingomyelin (d33:1) level vs controls: 1.19 and 1.34 and 1.15 and 1.32 and 1.18 and 1.20
  Sphingomyelin (d34:0) level vs controls: 0.96 and 1.09 and 1.25 and 1.15 and 1.11
  Sphingomyelin (d35:1) level vs controls: 0.86 and 0.95 and 0.88 and 0.85 and 0.92
  Sphingomyelin (d36:1) level vs controls: 0.86 and 0.96 and 0.90 and 0.82 and 0.84
  Sphingomyelin (d36:2) level vs controls: 0.73 and 0.90 and 0.85 and 0.87 and 0.88
  Sphingomyelin (d37:1) level vs controls: 0.70 and 0.80 and 0.79 and 0.76
  Sphingomyelin (d38:1) level vs controls: 0.88 and 0.84 and 0.85 and 0.87 and 0.91
  Sphingomyelin (d38:2) level vs controls: 0.61 and 0.66 and 0.64 and 0.67 and 0.71
  Sphingomyelin (d39:1) level vs controls: 0.77 and 0.83 and 0.87 and 0.81 and 0.86
  Sphingomyelin (d40:2) level vs controls: 0.73 and 0.83 and 0.81 and 0.87 and 0.78 and 0.84
  Sphingomyelin (d41:2) level vs controls: 0.78 and 0.79 and 0.82 and 0.88 and 0.77 and 0.80
  Sphingomyelin (d42:2) level vs controls: 0.86 and 0.95 and 0.81 and 0.98 and 0.89 and 0.91
  Taurine level vs controls: 0.93 and 0.92 and 0.68 and 0.90 and 0.88
  Triacylglycerol (C34:1.C18:3) level vs controls: 1.57 and 2.06 and 2.37 and 1.58 and 1.93 and 2.00
  Triacylglycerol (C34:2.C18:0) level vs controls: 1.63 and 1.54 and 1.78 and 1.17 and 1.31 and 1.39
  Triacylglycerol (C34:2.C18:1) level vs controls: 1.40 and 1.62 and 1.81 and 1.26 and 1.79 and 1.43
  Triacylglycerol (C36:4.C16:0) level vs controls: 1.74 and 2.34 and 2.73 and 1.73 and 1.97 and 2.11
  Triacylglycerol (C36:4.C18:0) level vs controls: 1.72 and 1.82 and 2.28 and 2.15 and 2.38 and 2.26
